Experimental data published in ChEMBL document CHEMBL1142653, “In silico prediction of membrane permeability from calculated molecular parameters” (J Med Chem, 2005).

Columns and labels:
[1] = Apparent permeability of the compound was determined in MDCK (madin darby canine kidney) strain I; Activity = Papp 10e-6; format: ADME, Canis lupus familiaris; conditions: dog
[2] = Apparent permeability of the compound was determined inCaco-2 (human colon carcinoma) cells; Activity = Papp 10E-6; format: ADME; conditions: Caco-2

Row | Papp [1] | Papp [2] | Compound
1 | 0.27 ×10⁻⁶ cm/s | – | CN/C(=C\[N+](=O)[O-])NCCSCc1ccc(CN(C)C)o1 [RANITIDINE]
2 | 37.8 ×10⁻⁶ cm/s | 18.2 ×10⁻⁶ cm/s | COCCc1ccc(OCC(O)CNC(C)C)cc1 (stereo unspecified) [METOPROLOL]
3 | 34.4 ×10⁻⁶ cm/s | 12.6 ×10⁻⁶ cm/s | CC(C)NCC(O)COc1cccc2ccccc12 (stereo unspecified) [PROPRANOLOL]

Row | Compound | Papp [1] | Papp [2]
4 | O=C(N[C@H](CO)[C@H](O)c1ccc([N+](=O)[O-])cc1)C(Cl)Cl [CHLORAMPHENICOL] | 3.15 ×10⁻⁶ cm/s | –
